The values that follow come from patent US10793558B2, “Quinoline oxadiazoles as cytoprotective agents” (priority 2015, dated 2020).

One experiment has as its system CSM14.1 neuronal cells. As to the kind of experiment: Cell Survival Assay (thapsigargin-treated CSM14.1 neuronal cells, CELLTITER-GLO luminescence). The format is cell-based. The following applies: CSM14.1 cells, about 15 μM thapsigargin, overnight (about 16 to 24 hrs), 2 hrs preincubation. The protocol:
CSM14.1 neuronal cells were maintained in Complete Medium at 32° C.; wherein the Complete Medium contained Dulbecco's modified eagle medium (DMEM) with 10% fetal bovine serum (FSB), 1% L-glutamine, 100 IU/mL penicillin, and 100 μg/mL streptomycin. […] Seeding was performed using a MultiDrop Combi reagent broadcaster. The plates were incubated overnight at 32° C. A test compound was prepared by 2-fold serial dilution in 100% DMSO using a BIOMEK® 2000 liquid handler (Beckman Coulter). A dose-response curve containing 10 concentrations of the test compound was obtained. Using a BIOMEK® FX liquid handler (Beckman Coulter), 2.5 μL of the test compound was transferred from the 100% DMSO serial dilution plate to an intermediate plate containing 47.5 μL of DMEM Assay Medium containing 2% FBS, 100 IU/mL penicillin, and 100 μg/mL streptomycin and mixed. […] The tissue culture media (4 μL) containing vehicle only was transferred manually to each control cell using a 16 channel electronic pipette. […] High luminescence indicates cell survival.
For orientation: ATP-based viability assays read luminescence as a measure of living cells.

The next experiment has as its system Ob/ob mice. As to the kind of experiment: Effect of a SERCA Agonist on the Level of Blood Glucose in Ob/ob mice. The format is in vivo, mouse. The following applies: 50 mg/kg i.p. once a day, 5 days, fasting glucose at baseline and 4 days after administration. Here is the method:
Ob/ob mice (10 weeks old, n=7) were intraperitoneally (i.p.) injected with 100 μL of a solution containing 0 (vehicle) or 50 mg/kg of a test compound once a day for a total of 5 days. Fasting glucose was measured at baseline and 4 days after the administration of the test compound. Glucose levels were measured in blood samples drawn from the tail vein using a handheld glucose sensor. Compound effects on blood glucose are shown in Table 5 where A represents a 10-20% reduction in blood glucose, B represents a 21-30% reduction in blood glucose, and C represents a greater than 30% reduction in blood glucose levels.

The test system of the next experiment is HEK293 cells; N2a cells. As to the kind of experiment: Cell Rescue Assay: Protection against Thapsigargin (TG)-induced Cell-death (ALAMARBLUE). The format is cell-based, human (HEK293); mouse (N2a). The note with it: compound 20 μM, 2 hrs before thapsigargin (15 μM for HEK293 cells and 1 μM for N2a cells), 24 hrs; cell line not given; read-out: Cell Survival %. Here is the method:
Protection against Thapsigargin (TG)-induced Cell-death. Human embryonic kidney (HEK293) cells were grown in Dulbecco's Modified Eagle's Medium (DMEM) with 10% FBS and 1% antibiotic antimycotic solution (ABAM). Mouse neuroblastoma (N2a) cells were grown in 1:1 DMEM:OPTI-MEM® with 5% FBS and 1% ABAM. All cells were grown in 10% CO2 in a humidified environment of the incubator. Cells grown in 96-well plates were exposed to a test compound (20 μM) for 2 hrs before addition of thapsigargin (15 μM for HEK293 cells and 1 μM for N2a cells) to induce ER stress. After incubation in cell-culture incubator for 24 hrs, ALAMARBLUE® regent (10% v/v) was added to the wells. Fluorescence reading was taken 2 hrs after the addition of the ALAMARBLUE® regent. Cell-viability was calculated as a percentage of relative fluorescence unit (RFU) compared to control. […] The biological results are summarized in Table 2, where each compound was tested at 20 μM and where A represents a viability greater than 50%, B represents a viability greather than 10% and less than 50%, C represents a value below 10%.
(The colour change of resazurin is a common sign of viable cells or microbes.)

Another experiment concerns SERCA. As to the kind of experiment: Ca-ATPase Assay (NADH-linked, enzyme-coupled ATPase assay, microsomal preparations from HEK 293 cells). The format is biochemical, human. The following applies: pH 7.0, 5 mM ATP, relative to controls. The protocol: A Ca-ATPase assay was performed using microsomal preparations from HEK 293 cells at a series of calcium concentrations corresponding to the physiological range, relative to controls. The ATP hydrolysis rate was measured over a range of calcium concentrations in the presence of test compounds using an NADH-linked, enzyme-coupled ATPase assay adapted for 96-well microplates, with Vmax determined by fitting the ATPase calcium-dependence to the Hill function. Each well contained 2 μg or 7 μg of SR vesicles (optimized for skeletal or cardiac SR, respectively), 50 mM MOPS (pH 7.0), 100 mM KCl, 5 mM MgCl2, 1 mM EGTA, 0.2 mM NADH, 1 mM phosphoenol pyruvate, 5 IU pyruvate kinase, 5 IU lactate dehydrogenase, and 3.5 μg/mL A23187 (a calcium ionophore). CaCl2 was added to set free [Ca^2+] to the specific values. The assay was started upon addition of ATP at a final concentration of 5 mM, and read in a SpectraMax Plus microplate spectrophotometer. The results are summarized in Table 4, where A represents an increase in SERCA Vmax greater than 50% and B represents a value greater than 10% and less than 50%.

In the case of `Cc1ccc2cccc(-c3nc(-c4ccc(OC(C)C)cc4)no3)c2n1` [Compound B1, 3-(4-Isopropoxyphenyl)-5-(2-methylquinolin-8-yl)-1,2,4-oxadiazole], the EC50 (commonly the concentration at which the effect is half-maximal) in the experiment with CSM14.1 neuronal cells lay in the range of 1000 to 10000 nM. In addition, the Glucose level reduction entry in the experiment on Ob/ob mice is on record as “B (a 21-30% reduction in blood glucose)”. In addition, in the experiment on HEK293 cells; N2a cells, the viability at 20 µM fell in the range of 10 to 50%.
As for `Cc1ccc2cccc(-c3nc(-c4ccc(Br)s4)no3)c2n1` [Compound B2, 3-(5-Bromothiophen-2-yl)-5-(2-methylquinolin-8-yl)-1,2,4-oxadiazole], the EC50 in the experiment with CSM14.1 neuronal cells lay in the range of 1000 to 10000 nM. Also, the Glucose level reduction result in the experiment on Ob/ob mice was “B (a 21-30% reduction in blood glucose)”. The viability at 20 µM in the experiment on HEK293 cells; N2a cells was in the range of 10 to 50%.
For `Cc1ccc2cccc(-c3nc(-c4cc(Br)cs4)no3)c2n1` [Compound B3, 3-(4-Bromothienyl-2-yl)-5-(2-methylquinolin-8-yl)-1,2,4-oxadiazole] the same measures were 1000 to 10000 nM, “A (a 10-20% reduction in blood glucose)” and greater than 50%.
Regarding `Cc1ccc2cccc(-c3nc(-c4ccc(Cl)cc4)no3)c2n1` [Compound B4, 3-(4-Chlorophenyl)-5-(2-methylquinolin-8-yl)-1,2,4-oxadiazole], the EC50 in the experiment on CSM14.1 neuronal cells was less than 1000 nM. Moreover, in the experiment with SERCA, the “SERCA Vmax Increase” value is “A (an increase in SERCA Vmax greater than 50%)”. Besides, in the experiment on Ob/ob mice, the Glucose level reduction result is recorded as “C (a greater than 30% reduction in blood glucose levels)”. Moreover, in the experiment with HEK293 cells; N2a cells, the viability at 20 µM was greater than 50%.
